“And” between values parts separate entries of the source, which are not always exact repeats. Equal entries are not always repeated. Where two headings read alike, the source gives them in different places.

The source of these data is publication PMC6201879, “N-substituted phenylbenzamides of the niclosamide chemotype attenuate obesity related changes in high fat diet fed mice” (PLoS ONE, 2018).

Data set [1] can be described thus: Body weight changes in HFD-fed mice. Type of data set: in vivo, mouse. As to conditions: 10mg/kg I.P daily for 12 days. The method, then:
We next measured body weight changes in HFD-fed animals prior to treatment with niclosamide or phenylbenzamide derivatives and after 12 days, prior to sacrifice. During this time, all animals (including sham) lost some weight.
20-week old animals were treated IP with 500199 at 10 or 25mg/kg by IP over a time-course of 9 days. At day 0, 3, 6 and 9 animals were weighed and tissue samples were collected for standard histological scoring of hepatic steatosis and automated quantitative histomorphometric scoring.

Data set [2] is described as follows: Pharmacokinetic profile in Sprague Dawley rats (IV and PO). Type of data set: in vivo. As to conditions: Mean + SD (n = 3); for F (oral bioavailability) / bioavailability: PO 5 mg/kg vs IV 1 mg/kg; for half-life / Cmax / bioavailability: Sprague Dawley; for half-life / Cmax / bioavailability / C0 / AUC(0-inf) / AUC(0-t) / clearance / MRT inf / Tmax: rat, plasma; for bioavailability: read-out: F (oral bioavailability); for clearance: read-out: Cl_obs. The procedure: To evaluate the pharmacokinetic profile by oral (PO) and intravenous (IV) administration routes we used 6 to 8-week old Sprague Dawley rats weighing approximately 200-330g (n = 3 per study group). Compounds were administered at 1mg/kg in 5% Cremophor EL and 20% PEG400 in water for IV and 5mg/kg in PBS for PO. All dose formulation was performed at room temperature. Animals were fasted overnight prior to dosing and were re-fed approximately 4 hours after dosing. For PO, 0.2ml of blood was collected pre- and 0.5, 1, 2, 4 8 12 and 24-hours after drug delivery and transferred to EDTA-K2 BD Vacutainer plastic blood collection tubes. IV samples were collected pre-injection and 0.08, 0.25, 0.5, 1, 2, 4, 8, 12, 24-hours post injection. Blood samples were centrifuged at 2,000 g for 5 minutes at 4°C to obtain plasma. Plasma samples were stored at -75±15°C prior to analysis and then thawed and analyzed by LC-MS/MS method and pharmacokinetic calculations were performed using WinNolin (Phoenix, version 6.4). For IV administration: T1/2, C0, AUClast, AUCinf, MRT, Cl, Vss, and number of points for regression were determined. For PO administration: T1/2, Cmax, Tmax, AUCinf, AUClast, F(0-∞) %, and number of points for regression were determined. Data are reported as mean and standard deviation.

The subject of data set [3] is carbonic anhydrase-III (CAIII). In words: Western blot of carbonic anhydrase III in liver of HFD-fed mice. Particulars: HFD fed-DIO mice; 10mg/kg for 12 days; vs sham.
Data set [4] has as its system Salmonella typhimurium (TA98, TA100, TA1535 and TA1537) and Escherichia coli (WP2 uvrA (pKM101)). Briefly: Ames assay, overall outcome and cytotoxicity across strains.
Data set [5] has as its system fatty acid synthase (FAS). In words: Western blot of fatty acid synthase in liver of HFD-fed mice. As to conditions: HFD fed-DIO mice; 10mg/kg for 12 days; vs sham.
The next data set deals with p-AMPK Thr-172. In words: Western blot of p-AMPK Thr-172 in liver of HFD-fed mice. As to conditions: HFD fed-DIO mice; 10mg/kg for 12 days; vs sham.
The mark [6] stands for this setting: iv, 1 mg/kg, IV 1 mg/kg, read-out: T 1/2 (IV) (converted).
The mark [7] stands for this setting: IV 1 mg/kg, read-out: AUC Inf (IV).
[8] abbreviates: IV 1 mg/kg, read-out: AUC last (IV).
Where [9] appears, read: IV 1 mg/kg, read-out: MRT Inf_obs (IV).
Where [10] appears, read: PO 5 mg/kg in PBS, read-out: AUC Inf (PO).
Where [11] appears, read: PO 5 mg/kg in PBS, read-out: AUC last (PO).
Setting [12] is: PO 5 mg/kg in PBS, read-out: MRT Inf_obs (PO).
[13] abbreviates: po, 5 mg/kg, PO 5 mg/kg in PBS, read-out: T 1/2 (PO) (converted).

For the compound `CC(C)(C)c1ccc(O)c(C(=O)Nc2ccc(C(=O)O)cc2C(F)(F)F)c1` [Compound 500873, 4-[(5-tert-butyl-2-hydroxy)amido]-3-(trifluoromethyl)benzoic acid], the “body weight change vs sham” value in data set [1] is “lost weight but this loss failed to reach significance”. Besides, in data set [2] (IV 1 mg/kg), the “AUC _%Extrap_obs (IV)” value is on record as 0.249 +/- 0.151%, the AUCl ast/D (IV) is 13000 ± 3070 ng·kg·h/mL/mg, the “V ss_obs” value stood at 0.11 ± 0.004 L/kg and the C0 is 24100 ± 4000 ng/mL. In addition, the clearance in data set [2] (IV 1 mg/kg) was 1.33 ± 0.31 mL/min/kg. Also, in data set [2] (PO 5 mg/kg in PBS), the “AUC _%Extrap_obs (PO)” value is 11.14 +/- 11.6%, the AUC last / D (PO) is 1290 ± 817 ng·kg·h/mL/mg and the Tmax stood at 3.33 ± 1.15 h. In addition, in data set [2] (PO 5 mg/kg in PBS, 5 mg/kg), the C max was 912.33 ± 856 ng/mL. Also, the “F (oral bioavailability)” value in data set [2] was 10.20 +/-6.3%. In addition, the half-life in data set [2] (setting [6]) was 2.87 ± 0.86 h. Further, the Cmax in data set [2] (po, 5 mg/kg, PO 5 mg/kg in PBS) came to 912 ng/mL. Further, the bioavailability in data set [2] (po, 5 mg/kg) was 10%. Further, the AUC(0-inf) in data set [2] (setting [7]) amounted to 13000 ± 3070 ng·h/mL. The AUC(0-t) in data set [2] (setting [8]) came to 13000 ± 3070 ng·h/mL. For the same compound, the MRT inf in data set [2] (setting [9]) amounted to 1.42 ± 0.29 h. Also, the AUC(0-inf) in data set [2] (setting [10]) is 6950 ± 3680 ng·h/mL. Moreover, in data set [2] (setting [11]), the AUC(0-t) is 6430 ± 4080 ng·h/mL. Further, in data set [2] (setting [12]), the MRT inf was 10 ± 5.6 h.
Consider `CC(C)(C)c1ccc(O)c(C(=O)Nc2ccc(C(=O)O)cc2Cl)c1` [Compound 500200, 4-[(5-tert-butyl-2-hydroxybenzene)amido]-3-chlorobenzoic acid], for which, in data set [2] (IV 1 mg/kg), the “AUC _%Extrap_obs (IV)” value was 0.13 +/- 0.016%, the AUCl ast/D (IV) was 1940 ± 166 ng·kg·h/mL/mg, the “V ss_obs” value came to 0.13 ± 0.020 L/kg and the C0 came out at 13800 ± 2610 ng/mL. In data set [2] (IV 1 mg/kg), the clearance came to 8.63 ± 0.78 mL/min/kg. Besides, in data set [2] (PO 5 mg/kg in PBS), the “AUC _%Extrap_obs (PO)” value is listed as 1.94 +/- 1.27%, the AUC last / D (PO) was 43.3 ± 25.3 ng·kg·h/mL/mg and the Tmax was found to be 3.33 ± 1.15 h. The half-life in data set [2] (setting [6]) was 1.66 ± 0.48 h. Moreover, the Cmax in data set [2] (po, 5 mg/kg, PO 5 mg/kg in PBS) was 50.8 ± 35.7 ng/mL. Moreover, the half-life in data set [2] (setting [13]) is 1.51 ± 0.4 h. For the same compound, the bioavailability in data set [2] (po, 5 mg/kg) was 2.26 ± 1.29%. In addition, the AUC(0-inf) in data set [2] (setting [7]) is 1940 ± 166 ng·h/mL. Moreover, in data set [2] (setting [8]), the AUC(0-t) is 1940 ± 166 ng·h/mL. Besides, the MRT inf in data set [2] (setting [9]) was 0.26 ± 0.048 h. For the same compound, in data set [2] (setting [10]), the AUC(0-inf) was determined as 220 ± 1250 ng·h/mL. Further, in data set [2] (setting [11]), the AUC(0-t) was 216 ± 127 ng·h/mL. In addition, the MRT inf in data set [2] (setting [12]) came to 4.04 ± 0.68 h. Besides, the “CAIII protein levels in liver” value in data set [3] is “reduced”. Moreover, the “Ames assay outcome (mutagenicity)” value in data set [4] is given as “negative”. For the same compound, in data set [4] (relative to the negative control, presence and absence of S9 mix), the “cytotoxicity in the Ames assay” value is listed as “cytotoxicity was exhibited at the highest concentrations in both strains”. Moreover, the “FAS protein levels in liver” value in data set [5] is listed as “reduced”. Moreover, the “phosphorylation of AMPK at Thr-172 in liver” value in the data set with p-AMPK Thr-172 is reported as “stimulated phosphorylation of AMPK at Thr-172”.
As for `CC(C)(C)c1ccc(O)c(C(=O)Nc2cc(C(=O)O)ccc2Cl)c1` [Compound 600494, 3-{[2-Hydroxy-5-(tert-butyl)benzene]amido}-4chloro-benzoic acid], in data set [2] (IV 1 mg/kg), the “AUC _%Extrap_obs (IV)” value is on record as 1.23 +/- 1.05%, the AUCl ast/D (IV) turned out to be 18200 ± 1190 ng·kg·h/mL/mg, the “V ss_obs” value was found to be 0.13 ± 0.035 L/kg and the C0 was 22900 ± 4300 ng/mL. Also, the clearance in data set [2] (IV 1 mg/kg) came out at 0.91 ± 0.068 mL/min/kg. In data set [2] (PO 5 mg/kg in PBS), the “AUC _%Extrap_obs (PO)” value is 3.64 +/-4.73%, the AUC last / D (PO) was 2490 ± 542 ng·kg·h/mL/mg and the Tmax turned out to be 5.33 ± 2.31 h. Also, the “T 1/2 (PO)” value in data set [2] (PO 5 mg/kg in PBS, 5 mg/kg) is 4.6 h and 4.58 ± 2.61 h. The “F (oral bioavailability)” value in data set [2] was 14.17 +/- 3.8%. Also, the half-life in data set [2] (setting [6]) is 5.36 ± 2 h. For the same compound, in data set [2] (po, 5 mg/kg, PO 5 mg/kg in PBS), the Cmax is 1850 ± 674 ng/mL. The half-life in data set [2] (setting [13]) was 5.3 h. Besides, the bioavailability in data set [2] (po, 5 mg/kg) worked out at 14%. Moreover, in data set [2] (setting [7]), the AUC(0-inf) was determined as 18400 ± 1400 ng·h/mL. The AUC(0-t) in data set [2] (setting [8]) amounted to 18200 ± 1190 ng·h/mL. Moreover, in data set [2] (setting [9]), the MRT inf came out at 2.39 ± 0.69 h. Further, the AUC(0-inf) in data set [2] (setting [10]) worked out at 13000 ± 3520 ng·h/mL. In addition, the AUC(0-t) in data set [2] (setting [11]) came out at 12400 ± 2710 ng·h/mL. The MRT inf in data set [2] (setting [12]) came to 7.89 ± 1.49 h.
